The text below walks through data of PMC9687798, “Atypical Substrates of the Organic Cation Transporter 1” (Biomolecules, 2022).

Read-outs that look alike come from different tables or passages of the source.

The target in one data set is T1, OCT3 (Homo sapiens, UniProt O75751).
T1 construct: expressed in transfected cells; host or cells: HEK293, stably transfected; gift from Dr. Koepsell and Dr. Gorbulev (University of Würzburg)
T1 sequence (O75751 1-556): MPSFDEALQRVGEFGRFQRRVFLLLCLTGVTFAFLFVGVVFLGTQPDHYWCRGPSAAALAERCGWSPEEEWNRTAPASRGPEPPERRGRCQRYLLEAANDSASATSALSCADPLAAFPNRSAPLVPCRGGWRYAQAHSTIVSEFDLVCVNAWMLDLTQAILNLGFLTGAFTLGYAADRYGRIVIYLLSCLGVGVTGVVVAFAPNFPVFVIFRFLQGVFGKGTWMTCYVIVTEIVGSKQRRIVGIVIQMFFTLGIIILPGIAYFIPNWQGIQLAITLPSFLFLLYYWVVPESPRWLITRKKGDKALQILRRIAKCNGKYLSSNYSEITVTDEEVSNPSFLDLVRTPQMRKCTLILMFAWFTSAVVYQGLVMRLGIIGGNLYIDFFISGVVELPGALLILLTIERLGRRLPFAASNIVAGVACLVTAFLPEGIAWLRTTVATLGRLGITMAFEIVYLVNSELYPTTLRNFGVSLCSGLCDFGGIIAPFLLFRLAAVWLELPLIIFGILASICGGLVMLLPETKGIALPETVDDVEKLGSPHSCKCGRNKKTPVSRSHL
Put plainly: Cellular uptake ratio, OCT3-overexpressing HEK293 cells vs empty vector. It is filed as cell-based. How it is done:
(§1) The wild-type cell lines of OCT1 and OCT2, as well as the variant cell lines OCT1*2 and *3, were generated using the Flp-In system (Thermo Fisher Scientific, Darmstadt, Germany) as described in previous publications. The cell line overexpressing OCT3 was a kind gift from Dr. Koepsell and Dr. Gorbulev (University of Würzburg, Germany). Cells transfected with the empty pcDNA5/FRT vector were used for the transport experiments as a control cell line. All cells were cultured approximately up to passage 30.
(§2) Forty-eight hours before the transport experiments, 600,000 cells were plated on 12-well plates pre-coated with poly-D-lysine and incubated at 37 °C with 5% CO2. The prepared 12-well plate with cells was positioned on a heating plate pre-warmed to 37 °C. After removing the medium, the cells were washed with 37 °C HBSS+ (10 mM HEPES in Hank’s balanced salt solution, pH 7.4). Then, one pre-defined concentration of a substrate was added to each well. The incubation period was stopped by adding 2 mL of 4 °C HBSS+ and removing the cells from the heating plate. The cells were washed twice with 4 °C HBSS+. For cell lysis, the cells were incubated for 15 min with 500 µL of 80% acetonitrile (LGC Standards, Wesel, Germany), which contained a respective internal standard (Table 1).
(§3) For concentration-dependent transport, the cells were incubated with defined substrate concentrations (0.1, 1, 10, 30, 100, 300, 600, 1000 µM) for the respective pre-defined incubation times. […] The uptake by a transporter was normalised to the uptake by empty vector-transfected cells. […] The results of transport experiments were normalized to the total protein concentration per well. Total protein quantification was performed using a bicinchoninic acid assay with bovine serum albumin as standard.
(§4) The ratios of cellular uptake were calculated by dividing the total uptake of transporter-overexpressing cells by the total uptake into empty vector transfected cells. The concentration-dependent cellular net uptake was used for analysis of transport kinetics by subtracting for each substrate concentration the uptake of empty vector-transfected cells from the uptake of transporter-overexpressing cells. […] The intrinsic clearance Clint was expressed with the ratio of Vmax and KM.

Data set [1] concerns the target T2, human OCT1*1 (wild-type) (Homo sapiens, UniProt O15245).
T2 sequence (O15245 1-554): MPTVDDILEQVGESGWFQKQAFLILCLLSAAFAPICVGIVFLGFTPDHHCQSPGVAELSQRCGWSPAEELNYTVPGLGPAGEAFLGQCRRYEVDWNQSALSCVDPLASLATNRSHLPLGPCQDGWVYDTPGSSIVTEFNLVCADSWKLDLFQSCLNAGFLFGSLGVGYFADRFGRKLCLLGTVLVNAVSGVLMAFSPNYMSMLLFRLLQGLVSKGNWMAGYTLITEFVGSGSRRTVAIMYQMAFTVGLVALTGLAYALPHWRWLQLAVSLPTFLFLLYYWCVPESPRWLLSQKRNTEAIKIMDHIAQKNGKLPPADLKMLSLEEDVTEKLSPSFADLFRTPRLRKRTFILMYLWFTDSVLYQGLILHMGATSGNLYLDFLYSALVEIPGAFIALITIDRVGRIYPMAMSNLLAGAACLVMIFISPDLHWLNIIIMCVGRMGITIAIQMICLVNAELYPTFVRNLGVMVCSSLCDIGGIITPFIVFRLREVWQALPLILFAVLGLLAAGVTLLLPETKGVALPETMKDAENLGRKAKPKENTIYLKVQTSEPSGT
Nature of the data set: Cellular uptake ratio, OCT1-overexpressing HEK293 cells vs empty vector. In kind it is cell-based. Here is the method:
as §1, §2, §3, §4

The target of data set [2] is T2, human OCT1*1 (wild-type). Nature of the data set: Concentration-dependent uptake (transport kinetics) in HEK293 cells overexpressing OCT1 wild-type. The following applies: for Clint (±SEM): intrinsic clearance = ratio of Vmax and KM, OCT1 wild-type.
The next data set has as its target T3, wild-type human OCT2 (Homo sapiens, UniProt O15244).
T3 sequence (O15244 1-555): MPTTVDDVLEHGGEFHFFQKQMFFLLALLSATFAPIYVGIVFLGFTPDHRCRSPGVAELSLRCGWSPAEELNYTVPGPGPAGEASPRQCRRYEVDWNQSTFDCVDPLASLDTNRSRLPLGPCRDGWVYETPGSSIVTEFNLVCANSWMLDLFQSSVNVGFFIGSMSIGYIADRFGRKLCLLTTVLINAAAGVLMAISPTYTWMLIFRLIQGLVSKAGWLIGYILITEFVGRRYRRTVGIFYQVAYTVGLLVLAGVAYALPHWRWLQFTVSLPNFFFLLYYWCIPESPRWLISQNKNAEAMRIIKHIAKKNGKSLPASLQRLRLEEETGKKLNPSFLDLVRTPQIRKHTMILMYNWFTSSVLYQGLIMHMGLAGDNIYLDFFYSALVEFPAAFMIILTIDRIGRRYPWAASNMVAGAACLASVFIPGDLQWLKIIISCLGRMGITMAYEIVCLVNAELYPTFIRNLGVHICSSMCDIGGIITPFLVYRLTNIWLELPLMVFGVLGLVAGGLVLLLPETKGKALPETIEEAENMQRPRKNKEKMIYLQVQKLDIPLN
Put plainly: Cellular uptake ratio, OCT2-overexpressing HEK293 cells vs empty vector. In kind it is cell-based. Here is the method: as §1, §2, §3, §4

Where [3] appears, read: based on ratio uptake data at 1 µM.
Setting [4] is: based on ratio uptake data at 100 µM (footnote *).
Setting [5] is: good >5, poor 1–5, non-substrate <1 µL/mg protein/min or uptake not above empty vector.
Where [6] appears, read: net uptake (OCT1 minus empty vector), HEK293, 0.1-1000 µM substrate, Michaelis–Menten.

In the case of `Nc1nc2c(ncn2COCCO)c(=O)[nH]1` [Acyclovir, acyclovir], the OCT3 transport category on OCT3 (setting [3]) is 0 (no transport by OCT1, OCT2, and OCT3 occurred (i.e., no kinetic parameters or uptake ratio <2 without significance)).
Take `C[C@H](CS)C(=O)N1CCC[C@H]1C(=O)O` [Captopril, captopril]: on OCT3 (setting [3]), the OCT3 transport category is 0 (no transport by OCT1, OCT2, and OCT3 occurred (i.e., no kinetic parameters or uptake ratio <2 without significance)).
With `C[C@@](Cc1ccc(O)c(O)c1)(NN)C(=O)O` [Carbidopa, carbidopa], the OCT1 transport category at human OCT1*1 (wild-type) [1] (setting [4]) was 0 (no transport by OCT1, OCT2, and OCT3 occurred (i.e., no kinetic parameters or uptake ratio <2 without significance)). Moreover, the “OCT1 substrate classification from concentration-dependent uptake” value (from here on “OCT1 substrate classification”) at human OCT1*1 (wild-type) [2] (setting [5]) is on record as “linear increase in total uptake of both cell lines”. In addition, on wild-type human OCT2 (setting [4]), the OCT2 transport category was 0 (no transport by OCT1, OCT2, and OCT3 occurred (i.e., no kinetic parameters or uptake ratio <2 without significance)). The OCT3 transport category at OCT3 (setting [4]) was 0 (no transport by OCT1, OCT2, and OCT3 occurred (i.e., no kinetic parameters or uptake ratio <2 without significance)).
For `Nc1ccn([C@@H]2O[C@H](CO)[C@@H](O)[C@@H]2O)c(=O)n1` [Cytarabine, cytarabine], at human OCT1*1 (wild-type) [2], the “OCT1 substrate classification” value is listed as “none of the four antimetabolites showed uptake by OCT1”.
For the molecule `Nc1ncn([C@H]2C[C@H](O)[C@@H](CO)O2)c(=O)n1` [Decitabine, decitabine], the “OCT1 substrate classification” value at human OCT1*1 (wild-type) [2] (setting [5]) is “none of the four antimetabolites showed uptake by OCT1”.
As to `C=C1[C@H](CO)[C@@H](O)C[C@@H]1n1cnc2c(=O)[nH]c(N)nc21` [Entecavir, entecavir], the OCT3 transport category on OCT3 (setting [3]) was 0 (no transport by OCT1, OCT2, and OCT3 occurred (i.e., no kinetic parameters or uptake ratio <2 without significance)).
`Nc1nc(O)c2ncn(COC(CO)CO)c2n1` [Ganciclovir, ganciclovir]: the OCT3 transport category at OCT3 (setting [3]) was 0 (no transport by OCT1, OCT2, and OCT3 occurred (i.e., no kinetic parameters or uptake ratio <2 without significance)).
Turning to `Nc1ccn([C@@H]2O[C@H](CO)[C@@H](O)C2(F)F)c(=O)n1` [Gemcitabine, gemcitabine], on human OCT1*1 (wild-type) [2] (setting [5]), the “OCT1 substrate classification” value is recorded as “none of the four antimetabolites showed uptake by OCT1”.
Consider `Cc1ccc(NC(=O)c2ccc(CN3CCN(C)CC3)cc2)cc1Nc1nccc(-c2cccnc2)n1` [Imatinib, imatinib], for which the “uptake by OCT1 (normalised to empty vector)” value at human OCT1*1 (wild-type) [1] is reported as “did not show uptake by OCT1”.
Turning to `C[C@H]1COc2c(N3CCN(C)CC3)c(F)cc3c(=O)c(C(=O)O)cn1c23` [Levofloxacin, levofloxacin], at human OCT1*1 (wild-type) [2], the “OCT1 substrate classification” value is “poor substrate of OCT1” and the “Clint (±SEM)” value is on record as 3.77 ± 2.77 µL/mg Protein/min. On OCT3 (setting [3]), the OCT3 transport category was 0 (no transport by OCT1, OCT2, and OCT3 occurred (i.e., no kinetic parameters or uptake ratio <2 without significance)).
A word on the Km: it is the concentration of substrate that gives half-maximal velocity. For the molecule `C[n+]1ccc(-c2ccccc2)cc1` [MPP^+, 1-methyl-4-phenylpyridinium], the “uptake ratio by OCT1 (normalised to empty vector)” value on human OCT1*1 (wild-type) [1] (1 µM and 100 µM substance) is listed as “up to 30”. In addition, on human OCT1*1 (wild-type) [1] (setting [3]), the OCT1 transport category entry is recorded as “++ (very good substrates of OCTs that have an intrinsic clearance >15 or show an uptake ratio >10)”. Also, the “Clint (±SEM)” value at human OCT1*1 (wild-type) [2] was found to be 20.8 ± 5.04 µL/mg Protein/min. Besides, the “Vmax (±SEM)” value at human OCT1*1 (wild-type) [2] (setting [6]) worked out at 2263 ± 184 pmol/mg Protein/min. In addition, the Km at human OCT1*1 (wild-type) [2] (read-out: KM (±SEM), net uptake (OCT1 minus empty vector), HEK293, 0.1-1000 µM substrate, Michaelis–Menten) turned out to be 108 ± 17.4 µM. For the same molecule, the OCT2 transport category entry at wild-type human OCT2 (setting [3]) is on record as “++ (very good substrates of OCTs that have an intrinsic clearance >15 or show an uptake ratio >10)”. On OCT3 (1 µM and 100 µM substance), the “uptake ratio by OCT3 (normalised to empty vector)” value is given as “relevant uptake”. The OCT3 transport category result at OCT3 (setting [3]) is on record as “++ (very good substrates of OCTs that have an intrinsic clearance >15 or show an uptake ratio >10)”.
For the molecule `C[N+]1(C)CCC[C@H]1C(=O)[O-]` [Stachydrine, stachydrine], the OCT1 transport category at human OCT1*1 (wild-type) [1] (setting [3]) was 0 (no transport by OCT1, OCT2, and OCT3 occurred (i.e., no kinetic parameters or uptake ratio <2 without significance)). Also, the “OCT1 substrate classification” value at human OCT1*1 (wild-type) [2] (setting [5]) is “very poor OCT1-mediated transport”. Besides, the “Vmax (±SEM)” value at human OCT1*1 (wild-type) [2] (setting [6]) turned out to be 238 ± 134 pmol/mg Protein/min. The OCT2 transport category on wild-type human OCT2 (setting [3]) was 0 (no transport by OCT1, OCT2, and OCT3 occurred (i.e., no kinetic parameters or uptake ratio <2 without significance)). The OCT3 transport category on OCT3 (setting [3]) is 0 (no transport by OCT1, OCT2, and OCT3 occurred (i.e., no kinetic parameters or uptake ratio <2 without significance)).
On to `O=c1ncccn1[C@@H]1O[C@H](CO)[C@@H](O)[C@H]1O` [Zebularine, zebularine], for which the “OCT1 substrate classification” value on human OCT1*1 (wild-type) [2] (setting [5]) is reported as “none of the four antimetabolites showed uptake by OCT1”.
